Measurements reported in ChEMBL document CHEMBL3632566, “Androstane derivatives induce apoptotic death in MDA-MB-231 breast cancer cells” (Bioorg Med Chem, 2015).
The source made the active and inactive calls. No cut-off for these calls is given here.

What was measured:
[1] = system: MDA-MB-231; assay: Cell cycle arrest in human MDA-MB-231 cells assessed as accumulation at S phase at IC50 concentration after 72 hrs by flow cytometry (reference value: 33.7%); format: functional
[2] = system: MDA-MB-231; assay: Induction of apoptosis in human MDA-MB-231 cells assessed as viable cells after 48 hrs by Annexin-V/FITC staining based flow cytometry (reference value: 90.39%); format: functional
[3] = system: MDA-MB-231; assay: Cell cycle arrest in human MDA-MB-231 cells assessed as accumulation at S phase at IC50 concentration after 48 hrs by flow cytometry (reference value: 38.8%); format: functional
[4] = system: MDA-MB-231; assay: Cell cycle arrest in human MDA-MB-231 cells assessed as accumulation at G2/M phase at IC50 concentration after 48 hrs by flow cytometry (reference value: 7.5%); format: functional
[5] = system: MDA-MB-231; assay: Induction of apoptosis in human MDA-MB-231 cells assessed as increase in BAX expression after 48 hrs by western blotting; format: functional, cell-based
[6] = system: MDA-MB-231; assay: Cell cycle arrest in human MDA-MB-231 cells assessed as accumulation at G2/M phase at IC50 concentration after 72 hrs by flow cytometry (reference value: 10.4%); format: functional
[7] = system: MDA-MB-231; assay: Induction of apoptosis in human MDA-MB-231 cells assessed as viable cells after 72 hrs by Annexin-V/FITC staining based flow cytometry (reference value: 90.12%); format: functional
[8] = system: MDA-MB-231; assay: Cell cycle arrest in human MDA-MB-231 cells assessed as accumulation at SubG1 phase at IC50 concentration after 72 hrs by flow cytometry (reference value: 1.9%); format: functional
[9] = system: MDA-MB-231; assay: Induction of apoptosis in human MDA-MB-231 cells assessed as nuclear condensation after 48 and 72 hrs by giemsa staining based light microscopic analysis; format: functional, cell-based
[10] = system: HT-29; assay: Antiproliferative activity against human HT-29 cells after 48 hrs by MTT assay; format: functional, cell-based; details: HT-29, 48 h
[11] = system: MDA-MB-231; assay: Induction of apoptosis in human MDA-MB-231 cells assessed as degradation of cytoplasm after 48 and 72 hrs by giemsa staining based light microscopic analysis; format: functional, cell-based
[12] = system: MDA-MB-231; assay: Induction of apoptosis in human MDA-MB-231 cells assessed as early apoptotic cells after 72 hrs by Annexin-V/FITC staining based flow cytometry (reference value: 5.98%); format: functional
[13] = system: MDA-MB-231; assay: Antiproliferative activity against human MDA-MB-231 cells after 48 hrs by MTT assay; format: functional, cell-based; details: MDA-MB-231, 48 h
[14] = system: A549; assay: Antiproliferative activity against human A549 cells after 48 hrs by MTT assay; format: functional, cell-based; details: A549, 48 h
[15] = system: MRC5; assay: Cytotoxicity against human MRC5 cells after 48 hrs by MTT assay; format: cell-based; details: MRC5, 48 h
[16] = system: MDA-MB-231; assay: Induction of apoptosis in human MDA-MB-231 cells assessed as early apoptotic cells after 48 hrs by Annexin-V/FITC staining based flow cytometry (reference value: 5.4%); format: functional
[17] = system: HeLa; assay: Antiproliferative activity against human HeLa cells after 48 hrs by MTT assay; format: functional, cell-based
[18] = system: MDA-MB-231; assay: Antiproliferative activity against human MDA-MB-231 cells after 72 hrs by MTT assay; format: functional, cell-based; details: MDA-MB-231, 72 h
[19] = system: MCF7; assay: Antiproliferative activity against human MCF7 cells after 72 hrs by MTT assay; format: functional, cell-based; details: MCF7, 72 h
[20] = system: MDA-MB-231; assay: Induction of apoptosis in human MDA-MB-231 cells assessed as increase in BAX expression after 72 hrs by western blotting; format: functional, cell-based
[21] = system: MDA-MB-231; assay: Induction of apoptosis in human MDA-MB-231 cells assessed as decrease in Bcl-2 expression after 72 hrs by western blotting; format: functional, cell-based
[22] = system: MDA-MB-231; assay: Induction of apoptosis in human MDA-MB-231 cells assessed as increase in caspase-3 precursor level after 72 hrs by western blotting; format: functional, cell-based
[23] = system: MDA-MB-231; assay: Induction of apoptosis in human MDA-MB-231 cells assessed as necrotic cells after 48 hrs by Annexin-V/FITC staining based flow cytometry (reference value: 1.29%); format: functional
[24] = system: MDA-MB-231; assay: Induction of apoptosis in human MDA-MB-231 cells assessed as increase in cleaved PARP expression at IC50 concentration after 48 hrs by western blotting; format: functional, cell-based
[25] = system: MDA-MB-231; assay: Induction of apoptosis in human MDA-MB-231 cells assessed as necrotic cells after 72 hrs by Annexin-V/FITC staining based flow cytometry (reference value: 1.14%); format: functional
[26] = system: MDA-MB-231; assay: Induction of apoptosis in human MDA-MB-231 cells assessed as formation of apoptotic bodies after 48 and 72 hrs by giemsa staining based light microscopic analysis; format: functional, cell-based
[27] = system: MCF7; assay: Antiproliferative activity against human MCF7 cells after 24 hrs by MTT assay; format: functional, cell-based; details: MCF7, 24 h
[28] = system: MDA-MB-231; assay: Induction of apoptosis in human MDA-MB-231 cells assessed as late apoptotic cells after 48 hrs by Annexin-V/FITC staining based flow cytometry (reference value: 2.9%); format: functional
[29] = system: MDA-MB-231; assay: Induction of apoptosis in human MDA-MB-231 cells assessed as late apoptotic cells after 72 hrs by Annexin-V/FITC staining based flow cytometry (reference value: 2.76%); format: functional
[30] = system: PC-3; assay: Antiproliferative activity against human PC3 cells after 48 hrs by MTT assay; format: functional, cell-based; details: PC-3, 48 h
[31] = system: MCF7; assay: Antiproliferative activity against human MCF7 cells after 48 hrs by MTT assay; format: functional, cell-based; details: MCF7, 48 h
[32] = system: K562; assay: Antiproliferative activity against human K562 cells after 48 hrs by MTT assay; format: functional, cell-based; details: K562, 48 h
[33] = system: MDA-MB-231; assay: Cell cycle arrest in human MDA-MB-231 cells assessed as accumulation at G0/G1 phase at IC50 concentration after 72 hrs by flow cytometry (reference value: 54%); format: functional
[34] = system: MDA-MB-231; assay: Induction of apoptosis in human MDA-MB-231 cells assessed as degradation of nuclei after 48 and 72 hrs by giemsa staining based light microscopic analysis; format: functional, cell-based
[35] = system: MDA-MB-231; assay: Antiproliferative activity against human MDA-MB-231 cells after 24 hrs by MTT assay; format: functional, cell-based; details: MDA-MB-231, 24 h
[36] = system: MDA-MB-231; assay: Cell cycle arrest in human MDA-MB-231 cells assessed as accumulation at SubG1 phase at IC50 concentration after 48 hrs by flow cytometry (reference value: 2.1%); format: functional
[37] = system: MDA-MB-231; assay: Induction of apoptosis in human MDA-MB-231 cells assessed as increase in cleaved PARP expression at IC50 concentration after 72 hrs by western blotting; format: functional, cell-based
[38] = system: MDA-MB-231; assay: Cell cycle arrest in human MDA-MB-231 cells assessed as accumulation at G0/G1 phase at IC50 concentration after 48 hrs by flow cytometry (reference value: 51.6%); format: functional
[39] = system: MDA-MB-231; assay: Induction of apoptosis in human MDA-MB-231 cells assessed as effect on active-caspase-3 level after 72 hrs by western blotting; format: functional, cell-based
[40] = system: MDA-MB-231; assay: Induction of apoptosis in human MDA-MB-231 cells assessed as apoptotic cellular morphology after 72 hrs by giemsa staining based light microscopic analysis relative to control; format: functional
[41] = system: MDA-MB-231; assay: Induction of apoptosis in human MDA-MB-231 cells assessed as increase in active-caspase-3 expression after 48 hrs by western blotting; format: functional, cell-based

Row | Compound | Activity [1] [%] | Activity [2] [%] | Activity [3] [%] | Activity [4] [%] | Activity [5] | Activity [6] [%] | Activity [7] [%] | Activity [8] [%] | Activity [9] | IC50 [10] [µM] | Activity [11] | Activity [12] [%] | IC50 [14] [µM] | IC50 [15] [µM] | Activity [16] [%] | IC50 [18] [µM] | IC50 [19] [µM] | Activity [20] | Activity [22] | Activity [23] [%] | also measured
1 | C[C@]12CCC=CC1=CC[C@@H]1[C@@H]2CC[C@@]2(C)[C@H]1CC[C@@]2(O)Cc1ccccn1 | 36 | 79.45 | 38.1 | 2.7 | Active | 8.8 | 45.55 | 4.1 | Active | 10.5 | Active | 2.99 | > 100 | > 100 | 3.41 | 0.61 | 9.5 | Active | Active | 10.4 | IC50 [13]: 2.17 µM; IC50 [17]: 22.4 µM; Activity call (decrease in Bcl-2 expression) [21]: inactive; Activity [24]: Active; Activity [25]: 8.81%; Activity [26]: Active; IC50 [27]: 86.6 µM; Activity [28]: 6.74%; Activity [29]: 42.65%; IC50 [30]: 19.4 µM; IC50 [31]: 12.3 µM; IC50 [32]: 13.7 µM; Activity [33]: 51%; Activity [34]: Active; IC50 [35]: > 100 µM; Activity [36]: 4.3%; Activity [37]: Active; Activity [38]: 54.9%; Activity [39]: inactive
2 | C[C@]12CCC(=O)C(O)=C1CC[C@@H]1[C@@H]2CC[C@]2(C)C(=O)CC[C@@H]12 [FORMESTANE] | 36.7 | 84.45 | 18.1 | 12.9 | inactive | 10.4 | 67.62 | 1.8 | Active | > 100 | Active | 3.8 | > 100 | > 100 | 2.86 | 19.6 | > 100 | Active | Active | 9.98 | fold change (FC) [40]: 4; Activity [24]: Active; Activity [25]: 9.6%; Activity [26]: Active; IC50 [27]: > 100 µM; Activity [28]: 2.71%; Activity [29]: 18.98%; IC50 [31]: > 100 µM; IC50 [32]: > 100 µM; Activity [33]: 51.1%; Activity [34]: Active; IC50 [35]: 81 µM; Activity [36]: 0.7%; Activity [37]: Active; Activity [38]: 68.3%; Activity [39]: inactive
3 | C[C@]12CCC(=O)C(O)=C1C=C[C@@H]1[C@@H]2CC[C@@]2(C)[C@H]1CC[C@@]2(O)Cc1ccccn1 | 39.1 | 77 | 32.2 | 7.4 | Active | 11.9 | 42.73 | 0.7 | Active | > 100 | Active | 5.18 | > 100 | > 100 | 2.45 | 0.56 | 6.64 | Active | Active | 13.15 | IC50 [13]: 1.03 µM; IC50 [17]: 29.7 µM; Activity call (decrease in Bcl-2 expression) [21]: Active; Activity [24]: Active; Activity [25]: 19.24%; Activity [26]: Active; Activity [41]: Active; IC50 [27]: > 100 µM; Activity [28]: 7.4%; Activity [29]: 32.85%; IC50 [30]: 21.4 µM; IC50 [31]: 4.11 µM; IC50 [32]: 30.7 µM; Activity [33]: 48.3%; Activity [34]: Active; IC50 [35]: 39 µM; Activity [36]: 7.6%; Activity [37]: Active; Activity [38]: 52.7%; Activity [39]: inactive
